Results published in patent US7700610B2, “Use of tyrosine kinase inhibitors for treating allergic diseases” (AB Science, priority 2001, dated 2010).

Key:
[1] = system: dog afflicted with severe atopic dermatitis; conditions: 3 year old dog with severe atopic dermatitis, 3 mg/kg/d together with cefalexine and ketoconazole
[2] = system: dog cutaneous mast cells; conditions: in vitro, Garcia and DeMora, Am J Vet Res 1997; cited from earlier work

| Structure (SMILES) | superficial pyodermatitis and generalized Malassezia dermatitis following treatment (FIG. 3) [1] | inhibition of histamine release [2] | prodegranulating effect [2] |
| --- | --- | --- | --- |
| Cc1ccc(NC(=O)c2ccc(CN3CCN(C)CC3)cc2)cc1Nc1nccc(-c2cccnc2)n1 [4-(4-méthylpipérazine-1-ylméthyl)-N-[4-méthyl-3-[(4-pyridine-3-yl-)pyrimidine-2Yl)amino-)]phényl]-benzamide] | resolution of the superficial pyodermatitis and generalized Malassezia dermatitis |  |  |
| CCOC(=O)N1CCC(=C2c3ccc(Cl)cc3CCc3cccnc32)CC1 [loratadine] |  | potent inhibition | without a substantial prodegranulating effect |
